Target: T1, elastase from human neutrophil (Homo sapiens, UniProt P08246)
T1 construct: using elastase from human neutrophil; from tissue; host or cells: human neutrophil
T1 sequence (P08246 30-247 limits assumed): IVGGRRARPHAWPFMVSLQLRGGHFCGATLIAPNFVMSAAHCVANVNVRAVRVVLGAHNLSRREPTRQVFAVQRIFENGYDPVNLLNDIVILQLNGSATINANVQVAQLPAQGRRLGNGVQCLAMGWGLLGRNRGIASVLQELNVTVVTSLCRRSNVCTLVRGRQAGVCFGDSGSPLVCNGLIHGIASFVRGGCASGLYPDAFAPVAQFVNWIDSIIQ
Assay: Inhibitory effect on elastase (spectrophotometric method, substrate Suc-Ala-Pro-Ala-pNA)
Type: biochemical
Conditions: Y represents an oxygen atom; for IC50: pH 8.0, 37° C., 30 minutes, read-out: Inhibitory Effect on Elastase, IC50
Procedure: The test was carried out by the slight modification of the method of Bieth et al [see Biochem. Med., 75, 350 (1974)] using elastase from human neutrophil.
The reaction mixture consisted of 1 mM Suc-Ala-Pro-Ala-pNA (dissolving in N-methylpyrrolidone to the concentration of 100 mM, and then adding 1/100 amount of the solution to the reaction mixture.), 0.1 M buffer solution of tris-hydrochloric acid (pH 8.0), 0.2 M sodium chloride aqueous solution, the sample solution of various concentrations and enzyme solution in a final volume of 1.0 ml was incubated at 37° C. for 30 minutes.
The reaction was stopped by the addition of 100 μl of 50% acetic acid into the reaction mixture, and then p-nitro anilide released was measured on absorbance of 405 nm.
Inhibition percentage of the test compounds was caliculated by the following equation: [formula]

Structure (SMILES)	IC50	inhibition at 100 µM	inhibition at 50 µg/mL (at 50 μg/ml (footnote 2), read-out: Inhibitory Effect on Elastase, Inhibition %)
Cc1ccccc1OC(=O)c1ccc(NC(=N)N)cc1 [Example 2]		20.2%	
Cc1cccc(OC(=O)c2ccc(NC(=N)N)cc2)c1 [Example 3]		45.6%	
Cc1ccc(OC(=O)c2ccc(NC(=N)N)cc2)cc1 [Example 4-methyl, reference compound]		28.4%	
Cc1cccc(OC(=O)c2ccc(NC(=N)N)cc2)c1C [Example 4]		5.9%	
Cc1cc(C)cc(OC(=O)c2ccc(NC(=N)N)cc2)c1 [Example 5]		46.2%	
CCc1cccc(OC(=O)c2ccc(NC(=N)N)cc2)c1 [Example 6]		39.6%	
COc1cccc(OC(=O)c2ccc(NC(=N)N)cc2)c1 [Example 8]	100 µM	50.9%	
COc1cc(OC)cc(OC(=O)c2ccc(NC(=N)N)cc2)c1 [Example 10]	40 µM		
CCS(=O)(=O)Oc1cc(COC)cc(OC(=O)c2ccc(NC(=N)N)cc2)c1 [Example 11]	60 µM	66%	
COCc1cc(OC(=O)c2ccc(NC(=N)N)cc2)cc(OC(=O)c2ccc(NC(=N)N)cc2)c1 [Example 13]	9.1 µM	89%	
COC(=O)c1ccc(OC(=O)c2ccc(NC(=N)N)cc2)cc1Cl [Example 16]		42%	
CC(C)OC(=O)c1cc(OC(=O)c2ccc(NC(=N)N)cc2)cc(C(=O)OC(C)C)c1 [Example 19]		5.2%	
CC(C)OC(=O)c1cccc(OC(=O)c2ccc(NC(=N)N)cc2)c1Cl [Example 21]	2 µM		
CCC(C)OC(=O)c1cccc(OC(=O)c2ccc(NC(=N)N)cc2)c1Cl (centres unmarked) [Example 22]	2.6 µM		
COC(=O)Cc1ccc(OC(=O)c2ccc(NC(=N)N)cc2)c(Cl)c1 [Example 25]		40%	
COC(=O)Cc1ccc(OC(=O)c2ccc(NC(=N)N)cc2)cc1Cl [Example 26]		13.3%	
N=C(N)Nc1ccc(C(=O)Oc2ccccc2F)cc1 [Example 28]	40 µM	76.3%	
N=C(N)Nc1ccc(C(=O)Oc2c(F)cccc2F)cc1 [Example 31]	3.7 µM		
N=C(N)Nc1ccc(C(=O)Oc2cccc(F)c2F)cc1 [Example 32]	3.7 µM		
N=C(N)Nc1ccc(C(=O)Oc2c(F)c(F)c(F)c(F)c2F)cc1 [Example 33]	5.8 µM	92.1%	

Structure (SMILES)	IC50	inhibition at 100 µM	inhibition at 50 µg/mL (at 50 μg/ml (footnote 2), read-out: Inhibitory Effect on Elastase, Inhibition %)
N=C(N)Nc1ccc(C(=O)Oc2ccccc2Cl)cc1 [Example 34]	27 µM	76.8%	
COc1cc(OC(=O)c2ccc(NC(=N)N)cc2)ccc1Cl [Example 40]		39%	
N=C(N)Nc1ccc(C(=O)Oc2cccc(C(F)(F)F)c2)cc1 [Example 46]	13 µM	71.4%	
CCCOc1ccc(C(C)=O)c(OC(=O)c2ccc(NC(=N)N)cc2)c1 [Example 50]	54 µM		
CCC(=O)c1ccc(Cl)cc1OC(=O)c1ccc(NC(=N)N)cc1 [Example 52]	1.6 µM		
CC(C)C(=O)c1ccc(Cl)cc1OC(=O)c1ccc(NC(=N)N)cc1 [Example 53]	6.5 µM		
N=C(N)Nc1ccc(C(=O)Oc2ccc(C(=O)c3ccccc3)cc2Cl)cc1 [Example 56]	48 µM	57.1%	
N=C(N)Nc1ccc(C(=O)Oc2cc(Cl)ccc2C(=O)CC2CCCC2)cc1 [Example 58]	1.9 µM		
CC(=O)Oc1ccc(OC(=O)c2ccc(NC(=N)N)cc2)cc1 [Example 60]		27.8%	
CC(=O)Oc1cc(Cl)cc(OC(=O)c2ccc(NC(=N)N)cc2)c1 [Example 61]	0.48 µM		
CCC(=O)Oc1cc(Cl)cc(OC(=O)c2ccc(NC(=N)N)cc2)c1 [Example 62]	0.38 µM		
N=C(N)Nc1ccc(C(=O)Oc2cccc(OC(=O)c3ccccc3)c2)cc1 [Example 63]	11 µM	78.3%	
CC(=O)c1cc(OC(=O)c2ccc(NC(=N)N)cc2)cc(OC(=O)c2ccc(NC(=N)N)cc2)c1 [Example 66]	72 µM		
N=C(N)Nc1ccc(C(=O)Oc2cc(Cl)cc(OC(=O)c3ccc(NC(=N)N)cc3)c2)cc1 [Example 68]	0.6 µM		
COc1cc(OC(=O)c2ccc(NC(=N)N)cc2)cc(OC(=O)c2ccc(NC(=N)N)cc2)c1 [Example 69]	1.6 µM		
CC(=O)OCc1cc(Cl)cc(OC(=O)c2ccc(NC(=N)N)cc2)c1 [Example 71]	3 µM		
CS(=O)(=O)c1ccc(OC(=O)c2ccc(NC(=N)N)cc2)cc1 [Example 72]	> 100 µM		
N=C(N)Nc1ccc(C(=O)Oc2cc(Cl)cc(C(N)=O)c2)cc1 [Example 79]	5.2 µM		
CN(C)C(=O)c1cccc(OC(=O)c2ccc(NC(=N)N)cc2)c1 [Example 80]		30%	

Other lines, results leading:

IC50	inhibition at 100 µM	inhibition at 50 µg/mL (at 50 μg/ml (footnote 2), read-out: Inhibitory Effect on Elastase, Inhibition %)	Structure (SMILES)
0.4 µM	97%		N=C(N)Nc1ccc(C(=O)Oc2cc(Cl)cc(Cl)c2)cc1 [Example 1, p-guanidinobenzoic acid 3,5-dichlorophenyl ester methanesulfonate]
	23.1%		COc1ccccc1OC(=O)c1ccc(NC(=N)N)cc1 [Example 7]
	44.4%		COc1ccc(OC(=O)c2ccc(NC(=N)N)cc2)cc1 [Example 9]
> 200 µM	14%		COCc1cc(O)cc(OC(=O)c2ccc(NC(=N)N)cc2)c1 [Example 12]
4 µM	90.7%		COC(=O)c1cccc(OC(=O)c2ccc(NC(=N)N)cc2)c1Cl [Example 14]
98 µM	55.6%		COC(=O)c1ccc(OC(=O)c2ccc(NC(=N)N)cc2)c(Cl)c1 [Example 15]
5.8 µM	92.2%		COC(=O)c1ccc(Cl)cc1OC(=O)c1ccc(NC(=N)N)cc1 [Example 17]
1.8 µM			COC(=O)c1cc(Cl)cc(OC(=O)c2ccc(NC(=N)N)cc2)c1 [Example 18]
14 µM			CC(C)OC(=O)c1ccc(Cl)cc1OC(=O)c1ccc(NC(=N)N)cc1 [Example 20]
	15.6%		COC(=O)Cc1cccc(OC(=O)c2ccc(NC(=N)N)cc2)c1 [Example 23]
50 µM			COC(=O)Cc1cccc(OC(=O)c2ccc(NC(=N)N)cc2)c1Cl [Example 24]
	31%		COC(=O)C=Cc1ccc(OC(=O)c2ccc(NC(=N)N)cc2)cc1 [Example 27]
21 µM	81.1%		N=C(N)Nc1ccc(C(=O)Oc2cccc(F)c2)cc1 [Example 29]
	10.7%		N=C(N)Nc1ccc(C(=O)Oc2ccc(F)cc2)cc1 [Example 30]
8 µM	87.6%		N=C(N)Nc1ccc(C(=O)Oc2cccc(Cl)c2)cc1 [Example 35]
		14.9%	N=C(N)Nc1ccc(C(=O)Oc2ccc(Cl)cc2)cc1 [Example 36]
2 µM	89.9%		N=C(N)Nc1ccc(C(=O)Oc2c(Cl)cccc2Cl)cc1 [Example 38]
2.4 µM	91.1%		COc1cc(Cl)cc(OC(=O)c2ccc(NC(=N)N)cc2)c1 [Example 39]
13 µM			COc1ccc(Cl)c(OC(=O)c2ccc(NC(=N)N)cc2)c1 [Example 41]
16 µM	82.1%		N=C(N)Nc1ccc(C(=O)Oc2ccccc2Br)cc1 [Example 42]
6 µM	91.7%		N=C(N)Nc1ccc(C(=O)Oc2cccc(Br)c2)cc1 [Example 43]

IC50	inhibition at 100 µM	inhibition at 50 µg/mL (at 50 μg/ml (footnote 2), read-out: Inhibitory Effect on Elastase, Inhibition %)	Structure (SMILES)
	11.2%		N=C(N)Nc1ccc(C(=O)Oc2ccc(I)cc2)cc1 [Example 44]
23 µM	72.4%		N=C(N)Nc1ccc(C(=O)Oc2ccccc2C(F)(F)F)cc1 [Example 45]
3.2 µM			N=C(N)Nc1ccc(C(=O)Oc2cc(C(F)(F)F)cc(C(F)(F)F)c2)cc1 [Example 47]
	4.1%		CC(=O)c1cccc(OC(=O)c2ccc(NC(=N)N)cc2)c1 [Example 48]
40 µM			COc1ccc(C(C)=O)c(OC(=O)c2ccc(NC(=N)N)cc2)c1 [Example 49]
1.8 µM			CC(=O)c1ccc(Cl)cc1OC(=O)c1ccc(NC(=N)N)cc1 [Example 51]
92 µM			N=C(N)Nc1ccc(C(=O)Oc2cccc(C(=O)c3ccccc3)c2)cc1 [Example 54]
	33.3%		N=C(N)Nc1ccc(C(=O)Oc2ccc(C(=O)c3ccccc3)cc2)cc1 [Example 55]
	50.5%		N=C(N)Nc1ccc(C(=O)Oc2ccc(C(=O)c3ccccc3)c(Cl)c2Cl)cc1 [Example 57]
	25.7%		CC(=O)Oc1cccc(OC(=O)c2ccc(NC(=N)N)cc2)c1 [Example 59]
15 µM			N=C(N)Nc1ccc(C(=O)Oc2cccc(OC(=O)c3ccc(NC(=N)N)cc3)c2)cc1 [Example 64]
	38%		N=C(N)Nc1ccc(C(=O)Oc2cc(OC(=O)c3ccc(NC(=N)N)cc3)cc(OC(=O)c3ccc(NC(=N)N)cc3)c2)cc1 [Example 65]
70 µM			COC(=O)c1cc(OC(=O)c2ccc(NC(=N)N)cc2)cc(OC(=O)c2ccc(NC(=N)N)cc2)c1 [Example 67]
6.4 µM			Cc1cc(OC(=O)c2ccc(NC(=N)N)cc2)cc(OC(=O)c2ccc(NC(=N)N)cc2)c1 [Example 70]
4.7 µM			COc1cc(OC(=O)c2ccc(NC(=N)N)cc2)cc(OS(C)(=O)=O)c1 [Example 73]
1 µM			CS(=O)(=O)Oc1cc(Cl)cc(OC(=O)c2ccc(NC(=N)N)cc2)c1 [Example 74]
1.1 µM			CC(C)S(=O)(=O)Oc1cc(Cl)cc(OC(=O)c2ccc(NC(=N)N)cc2)c1 [Example 76]
0.8 µM			N=C(N)Nc1ccc(C(=O)Oc2cc(Cl)cc(OS(=O)(=O)c3ccccc3)c2)cc1 [Example 77]
27 µM			CCS(=O)(=O)Oc1cc(C)cc(OC(=O)c2ccc(NC(=N)N)cc2)c1 [Example 78]
6 µM			CNC(=O)c1cccc(OC(=O)c2ccc(NC(=N)N)cc2)c1Cl [Example 81]

From patent publication US5247084A, “Derivatives of p-guanidinobenzoic acid” (priority 1985, dated 1993)
